Data published in patent publication US6787525B1, “Glyceryl nucleotides, method for the production thereof and their use” (priority 1998, dated 2004).

Columns and labels:
[1] = tested on: M14; test: In vitro cytostatic effect (SRB): M14, Melanoma
[2] = tested on: CCRF-CEM; test: In vitro cytostatic effect (SRB): CCRF-CEM, Leukemia
[3] = tested on: PC-3; test: In vitro cytostatic effect (SRB): PC-3, Prostate cancer
[4] = tested on: NCI-H226; test: In vitro cytostatic effect (SRB): NCI-H226, Lung cancer
[5] = tested on: MDA-N; test: In vitro cytostatic effect (SRB): MDA-N, Breast cancer
[6] = tested on: SK-MEL-2; test: In vitro cytostatic effect (SRB): SK-MEL-2, Melanoma
[7] = tested on: MDA-MB-231/ATCC; test: In vitro cytostatic effect (SRB): MDA-MB-231/ATCC, Breast cancer
[8] = tested on: SF-295; test: In vitro cytostatic effect (SRB): SF-295, Cancer of the central nervous system
[9] = tested on: KM12; test: In vitro cytostatic effect (SRB): KM12, Intestinal cancer
[10] = tested on: 768-0; test: In vitro cytostatic effect (SRB): 768-0, Kidney cancer
[11] = tested on: K-562; test: In vitro cytostatic effect (SRB): K-562, Leukemia
[12] = tested on: T-47D; test: In vitro cytostatic effect (SRB): T-47D, Breast cancer
[13] = tested on: SNB-75; test: In vitro cytostatic effect (SRB): SNB-75, Cancer of the central nervous system
[14] = tested on: UACC-62; test: In vitro cytostatic effect (SRB): UACC-62, Melanoma
[15] = tested on: BT-549; test: In vitro cytostatic effect (SRB): BT-549, Breast cancer
[16] = tested on: SK-OV-3; test: In vitro cytostatic effect (SRB): SK-OV-3, Ovarian cancer
[17] = tested on: MALME-3M; test: In vitro cytostatic effect (SRB): MALME-3M, Melanoma
[18] = tested on: NCI-H522; test: In vitro cytostatic effect (SRB): NCI-H522, Lung cancer
[19] = tested on: SR; test: In vitro cytostatic effect (SRB): SR, Leukemia
[20] = tested on: EKVX; test: In vitro cytostatic effect (SRB): EKVX, Lung cancer; conditions: 48-hour incubation
[21] = tested on: DU-145; test: In vitro cytostatic effect (SRB): DU-145, Prostate cancer
[22] = tested on: SK-MEL-5; test: In vitro cytostatic effect (SRB): SK-MEL-5, Melanoma
[23] = tested on: OVCAR-3; test: In vitro cytostatic effect (SRB): OVCAR-3, Ovarian cancer
[24] = tested on: SNB-19; test: In vitro cytostatic effect (SRB): SNB-19, Cancer of the central nervous system
[25] = tested on: NCI-H460; test: In vitro cytostatic effect (SRB): NCI-H460, Lung cancer
[26] = tested on: OVCAR-5; test: In vitro cytostatic effect (SRB): OVCAR-5, Ovarian cancer
[27] = tested on: SN12C; test: In vitro cytostatic effect (SRB): SN12C, Kidney cancer
[28] = tested on: UACC-257; test: In vitro cytostatic effect (SRB): UACC-257, Melanoma
[29] = read-out: LC50, 48-hour incubation

SMILES: Nc1ccn(C2CCC(COP(=O)(O)OCC(O)COP(=O)(O)OCC3OC(n4cc(F)c(=O)[nH]c4=O)CC3O)O2)c(=O)n1 (racemic) [NSC 704533, 2′,3′-didesoxycytidylyl-(5′→1)-racglycerylyl-(3→5′)-5-fluoro-2′-desoxyuridine]
- GI50 ([1]; 48-hour incubation): 0.203 µM
- TGI ([1]; 48-hour incubation): >1.00E − 04 mol/l
- CC50 [1, 29]: > 100 µM
- TGI ([2]; 48-hour incubation): >1.00E − 04 mol/l
- CC50 [2, 29]: > 100 µM
- GI50 ([3]; 48-hour incubation): 2.28 µM
- TGI ([3]; 48-hour incubation): >1.00E − 04 mol/l
- CC50 [3, 29]: > 100 µM
- GI50 ([4]; 48-hour incubation): > 100 µM
- TGI ([4]; 48-hour incubation): >1.00E − 04 mol/l
- CC50 [4, 29]: > 100 µM
- GI50 ([5]; 48-hour incubation): 25.4 µM
- TGI ([5]; 48-hour incubation): >1.00E − 04 mol/l
- CC50 [5, 29]: > 100 µM
- GI50 ([6]; 48-hour incubation): 79.4 µM
- TGI ([6]; 48-hour incubation): >1.00E − 04 mol/l
- CC50 [6, 29]: > 100 µM
- GI50 ([7]; 48-hour incubation): 95.5 µM
- TGI ([7]; 48-hour incubation): >1.00E − 04 mol/l
- CC50 [7, 29]: > 100 µM
- GI50 ([8]; 48-hour incubation): 0.0345 µM
- TGI ([8]; 48-hour incubation): >1.00E − 04 mol/l
- CC50 [8, 29]: > 100 µM
- GI50 ([9]; 48-hour incubation): 14.5 µM
- TGI ([9]; 48-hour incubation): >1.00E − 04 mol/l
- CC50 [9, 29]: > 100 µM
- GI50 ([10]; 48-hour incubation): > 100 µM
- TGI ([10]; 48-hour incubation): >1.00E − 04 mol/l
- CC50 [10, 29]: > 100 µM
- GI50 ([11]; 48-hour incubation): 2.57 µM
- TGI ([11]; 48-hour incubation): >1.00E − 04 mol/l
- CC50 [11, 29]: > 100 µM
- GI50 ([12]; 48-hour incubation): 1.42 µM
- TGI ([12]; 48-hour incubation): >1.00E − 04 mol/l
- CC50 [12, 29]: > 100 µM
- GI50 ([13]; 48-hour incubation): 1.59 µM
- TGI ([13]; 48-hour incubation): >1.00E − 04 mol/l
- CC50 [13, 29]: > 100 µM
- GI50 ([14]; 48-hour incubation): 0.55 µM
- TGI ([14]; 48-hour incubation): >1.00E − 04 mol/l
- CC50 [14, 29]: > 100 µM
- GI50 ([15]; 48-hour incubation): 4.15 µM
- TGI ([15]; 48-hour incubation): >1.00E − 04 mol/l
- CC50 [15, 29]: > 100 µM
- GI50 ([16]; 48-hour incubation): 44.3 µM
- TGI ([16]; 48-hour incubation): >1.00E − 04 mol/l
- CC50 [16, 29]: > 100 µM
- GI50 ([17]; 48-hour incubation): > 100 µM
- TGI ([17]; 48-hour incubation): >1.00E − 04 mol/l
- CC50 [17, 29]: > 100 µM
- GI50 ([18]; 48-hour incubation): 0.746 µM
- TGI ([18]; 48-hour incubation): >1.00E − 04 mol/l
- CC50 [18, 29]: > 100 µM
- GI50 ([19]; 48-hour incubation): < 0.01 µM
- TGI ([19]; 48-hour incubation): >1.00E − 04 mol/l
- CC50 [19, 29]: > 100 µM
- GI50 [20]: > 100 µM
- TGI [20]: >1.00E − 04 mol/l
- GI50 ([21]; 48-hour incubation): 0.158 µM
- TGI ([21]; 48-hour incubation): >1.00E − 04 mol/l
- CC50 [21, 29]: > 100 µM
- GI50 ([22]; 48-hour incubation): 0.689 µM
- TGI ([22]; 48-hour incubation): >1.00E − 04 mol/l
- CC50 [22, 29]: > 100 µM
- GI50 ([23]; 48-hour incubation): 65.4 µM
- TGI ([23]; 48-hour incubation): >1.00E − 04 mol/l
- CC50 [23, 29]: > 100 µM
- GI50 ([24]; 48-hour incubation): 0.25 µM
- TGI ([24]; 48-hour incubation): >1.00E − 04 mol/l
- CC50 [24, 29]: > 100 µM
- GI50 ([25]; 48-hour incubation): < 0.01 µM
- TGI ([25]; 48-hour incubation): >1.00E − 04 mol/l
- CC50 [25, 29]: > 100 µM
- GI50 ([26]; 48-hour incubation): 12.6 µM
- TGI ([26]; 48-hour incubation): >1.00E − 04 mol/l
- CC50 [26, 29]: > 100 µM
- GI50 ([27]; 48-hour incubation): 0.173 µM
- TGI ([27]; 48-hour incubation): >1.00E − 04 mol/l
- CC50 [27, 29]: > 100 µM
- GI50 ([28]; 48-hour incubation): > 100 µM
- TGI ([28]; 48-hour incubation): >1.00E − 04 mol/l
- CC50 [28, 29]: > 100 µM
